Consider 19 molecules from patent publication US12281122B1, “PI3K inhibitors” (Cogent Biosciences, Inc., priority 2023, dated 2025).

Test [1] deals with T47D (PI3Kα-H1047R) cell line. The test can be described thus: HTRF phospho-AKT(S473) cell assay in T47D cells. It is filed as cell-based, human. Particulars: Homo sapiens; HTRF phospho-AKT(S473), T47D (PI3Kα-H1047R) cells, 2 hours compound incubation. The method, boiled down: (§1)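 HTRF read-out of phospho-AKT(S473) in lysates gave IC50 values after 2 h compound exposure at 37° C. Dose series was 12 points at 1:3, topping at 5 μM for T47D and 10 μM for SKBR3. Only SKBR3 received 70 ng/ml PDGF-BB during the last 15 minutes.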
Background: Time-resolved FRET reads energy transfer from a long-lived donor to a nearby acceptor.

Test [2] has as its system SKBR3 (PI3Kα-Wild Type) cell line. The test can be described thus: HTRF phospho-AKT(S473) cell assay in SKBR3 cells. It is filed as cell-based, human. The note with it: Homo sapiens, SK-BR-3; HTRF phospho-AKT(S473), SKBR3 (PI3Kα-Wild Type) cells, 2 hours compound incubation, PDGF-BB stimulated. A digest of the protocol: as §1

Turning to `Cc1cc([C@@H](C)Nc2ccc(Cl)nc2C(=O)NS(C)(=O)=O)c2nc(N3CCC(c4ncnn4C(C)C)CC3)n(C)c(=O)c2c1` [Compound 719, (R)-6-chloro-3-((1-(2-(4-(1-isopropyl-1H-1,2,4-triazol-5-yl)piperidin-1-yl)-3,6-dimethyl-4-oxo-3,4-dihydroquinazolin-8-yl)ethyl)amino)-N-(methylsulfonyl) picolinamide], the IC50 (commonly the point on the concentration scale where inhibition reaches its midpoint) was 0.25 to 0.5 µM in test [1] and at least 5 µM in test [2].

For the molecule `COc1ncc(F)c(N2CCN(c3nc4c([C@@H](C)Nc5ccc(Cl)nc5C(=O)NS(C)(=O)=O)cc(C)cc4c(=O)n3C)CC2)n1` [Compound 720, (R)-6-chloro-3-((1-(2-(4-(5-fluoro-2-methoxypyrimidin-4-yl)piperazin-1-yl)-3,6-dimethyl-4-oxo-3,4-dihydroquinazolin-8-yl)ethyl)amino)-N-(methylsulfonyl) picolinamide], the figures for the IC50 in test [1] and in test [2] were below 0.25 µM and 1 to 5 µM, respectively.

Turning to `COc1cc([C@H]2[C@@H]3CN(c4nc5c([C@@H](C)Nc6ccc(Cl)nc6C(=O)NS(C)(=O)=O)cc(C)cc5c(=O)n4C)C[C@@H]32)n[nH]1` [Compound 722, 6-chloro-3-(((R)-1-(2-((1R,5S,6R)-6-(5-methoxy-1H-pyrazol-3-yl)-3-azabicyclo[3.1.0]hexan-3-yl)-3,6-dimethyl-4-oxo-3,4-dihydroquinazolin-8-yl)ethyl)amino)-N-(methylsulfonyl) picolinamide], the IC50 in test [1] was 0.25 to 0.5 µM; in test [2] it was 1 to 5 µM.

Regarding `Cc1cc([C@@H](C)Nc2ccc(Cl)nc2C(=O)NS(C)(=O)=O)c2nc(N3CCC(c4nc(C)n(C(F)F)n4)CC3)n(C)c(=O)c2c1` [Compound 723, (R)-6-chloro-3-((1-(2-(4-(1-(difluoromethyl)-5-methyl-1H-1,2,4-triazol-3-yl)piperidin-1-yl)-3,6-dimethyl-4-oxo-3,4-dihydroquinazolin-8-yl)ethyl)amino)-N-(methylsulfonyl) picolinamide], the IC50 in test [1] lay within 0.25 to 0.5 µM; in test [2], 1 to 5 µM.

As for `Cc1cc([C@@H](C)Nc2ccc(Cl)nc2C(=O)NS(C)(=O)=O)c2nc(N3CCC(c4nc(C)nn4C(F)F)CC3)n(C)c(=O)c2c1` [Compound 724, (R)-6-chloro-3-((1-(2-(4-(1-(difluoromethyl)-3-methyl-1H-1,2,4-triazol-5-yl)piperidin-1-yl)-3,6-dimethyl-4-oxo-3,4-dihydroquinazolin-8-yl)ethyl)amino)-N-(methylsulfonyl) picolinamide], the IC50 in test [1] lay in the range of 0.25 to 0.5 µM; in test [2], 1 to 5 µM.

Consider `Cc1cc([C@@H](C)Nc2ccc(Cl)nc2C(=O)NS(C)(=O)=O)c2nc(N3CCC(c4nnc(C)n4C(F)F)CC3)n(C)c(=O)c2c1` [Compound 725, (R)-6-chloro-3-((1-(2-(4-(4-(difluoromethyl)-5-methyl-4H-1,2,4-triazol-3-yl)piperidin-1-yl)-3,6-dimethyl-4-oxo-3,4-dihydroquinazolin-8-yl)ethyl)amino)-N-(methylsulfonyl) picolinamide], for which the results for the IC50 in test [1] and in test [2] were 0.25 to 0.5 µM and 1 to 5 µM, respectively.

For `Cc1cc([C@@H](C)Nc2ccc(Cl)nc2C(=O)NS(C)(=O)=O)c2nc(N3C[C@@H]4C[C@H]3CN4c3nccnc3C)n(C)c(=O)c2c1` [Compound 726, 6-chloro-3-(((R)-1-(3,6-dimethyl-2-((1S,4S)-5-(3-methylpyrazin-2-yl)-2,5-diazabicyclo[2.2.1]heptan-2-yl)-4-oxo-3,4-dihydroquinazolin-8-yl)ethyl)amino)-N-(methylsulfonyl) picolinamide], the IC50 in test [1] fell in the range of 0.25 to 0.5 µM; in test [2], 1 to 5 µM.

As to `Cc1cc([C@@H](C)Nc2ccc(Cl)nc2C(=O)NS(C)(=O)=O)c2nc(N3CCN(c4nc(C)ncc4Cl)CC3)n(C)c(=O)c2c1` [Compound 727, (R)-6-chloro-3-((1-(2-(4-(5-chloro-2-methylpyrimidin-4-yl)piperazin-1-yl)-3,6-dimethyl-4-oxo-3,4-dihydroquinazolin-8-yl)ethyl)amino)-N-(methylsulfonyl) picolinamide], the values for the IC50 in test [1] and in test [2] were 0.25 to 0.5 µM and 1 to 5 µM, respectively.

On to `Cc1cc([C@@H](C)Nc2ccc(Cl)nc2C(=O)NS(C)(=O)=O)c2nc(N3CCC(c4ncc(C)o4)CC3)n(C)c(=O)c2c1` [Compound 728, (R)-6-chloro-3-((1-(3,6-dimethyl-2-(4-(5-methyloxazol-2-yl)piperidin-1-yl)-4-oxo-3,4-dihydroquinazolin-8-yl)ethyl)amino)-N-(methylsulfonyl) picolinamide], for which the IC50 in test [1] lay in the range of 0.25 to 0.5 µM; in test [2], 1 to 5 µM.

As for `COc1nc(C)cc(N2CCN(c3nc4c([C@@H](C)Nc5ccc(Cl)nc5C(=O)NS(C)(=O)=O)cc(C)cc4c(=O)n3C)CC2)n1` [Compound 729, (R)-6-chloro-3-((1-(2-(4-(2-methoxy-6-methylpyrimidin-4-yl)piperazin-1-yl)-3,6-dimethyl-4-oxo-3,4-dihydroquinazolin-8-yl)ethyl)amino)-N-(methylsulfonyl) picolinamide], the IC50 was 0.25 to 0.5 µM in test [1] and 1 to 5 µM in test [2].

As for `Cc1cc([C@@H](C)Nc2ccc(Cl)nc2C(=O)NS(C)(=O)=O)c2nc(N3CCN(c4cc(F)cnc4C)CC3)n(C)c(=O)c2c1` [Compound 730, (R)-6-chloro-3-((1-(2-(4-(5-fluoro-2-methylpyridin-3-yl)piperazin-1-yl)-3,6-dimethyl-4-oxo-3,4-dihydroquinazolin-8-yl)ethyl)amino)-N-(methylsulfonyl) picolinamide], the IC50 in test [1] was 0.25 to 0.5 µM; in test [2], 1 to 5 µM.

For `[2H]C([2H])([2H])n1ccc([C@H]2[C@@H]3CN(c4nc5c([C@@H](C)Nc6ccc(Cl)nc6C(=O)NS(C)(=O)=O)cc(C)cc5c(=O)n4CC)C[C@@H]32)n1` [Compound 731, 6-chloro-3-(((R)-1-(3-ethyl-6-methyl-2-((1R,5S,6R)-6-(1-(methyl-d3)-1H-pyrazol-3-yl)-3-azabicyclo[3.1.0]hexan-3-yl)-4-oxo-3,4-dihydroquinazolin-8-yl)ethyl)amino)-N-(methylsulfonyl) picolinamide], the IC50 in test [1] is below 0.25 µM; in test [2] it was 1 to 5 µM.

In the case of `CCn1c(N2Cc3cn(CC(F)(F)F)nc3C2)nc2c([C@@H](C)Nc3ccc(Cl)nc3C(=O)NS(C)(=O)=O)cc(C)cc2c1=O` [Compound 732, (R)-6-chloro-3-((1-(3-ethyl-6-methyl-4-oxo-2-(2-(2,2,2-trifluoroethyl)-2,6-dihydropyrrolo[3,4-c]pyrazol-5(4H)-yl)-3,4-dihydroquinazolin-8-yl)ethyl)amino)-N-(methylsulfonyl) picolinamide], the IC50 was below 0.25 µM in test [1] and 1 to 5 µM in test [2].

Consider `CCn1c(N2Cc3cnn(CC(F)(F)F)c3C2)nc2c([C@@H](C)Nc3ccc(Cl)nc3C(=O)NS(C)(=O)=O)cc(C)cc2c1=O` [Compound 733, (R)-6-chloro-3-((1-(3-ethyl-6-methyl-4-oxo-2-(1-(2,2,2-trifluoroethyl)-4,6-dihydropyrrolo[3,4-c]pyrazol-5(1H)-yl)-3,4-dihydroquinazolin-8-yl)ethyl)amino)-N-(methylsulfonyl) picolinamide], for which the concentration for half-maximal inhibition (IC50) in test [1] lay within 0.5 to 1 µM; in test [2], 1 to 5 µM.

Regarding `[2H]C([2H])([2H])n1ccc([C@H]2[C@@H]3CN(c4nc5c([C@@H](C)Nc6ccc(Cl)nc6C(=O)NS(C)(=O)=O)cc(C)cc5c(=O)n4C4CC4)C[C@@H]32)n1` [Compound 734, 6-chloro-3-(((R)-1-(3-cyclopropyl-6-methyl-2-((1R,5S,6R)-6-(1-(methyl-d3)-1H-pyrazol-3-yl)-3-azabicyclo[3.1.0]hexan-3-yl)-4-oxo-3,4-dihydroquinazolin-8-yl)ethyl)amino)-N-(methylsulfonyl) picolinamide], the IC50 in test [1] fell in the range of 0.25 to 0.5 µM; in test [2], 1 to 5 µM.

Consider `Cc1cc([C@@H](C)Nc2ccc(Cl)nc2C(=O)NS(C)(=O)=O)c2nc(N3Cc4cn(CC(F)(F)F)nc4C3)n(C3CC3)c(=O)c2c1` [Compound 735, (R)-6-chloro-3-((1-(3-cyclopropyl-6-methyl-4-oxo-2-(2-(2,2,2-trifluoroethyl)-2,6-dihydropyrrolo[3,4-c]pyrazol-5(4H)-yl)-3,4-dihydroquinazolin-8-yl)ethyl)amino)-N-(methylsulfonyl) picolinamide], for which the IC50 fell in the range of 0.25 to 0.5 µM in test [1] and 1 to 5 µM in test [2].

As to `Cc1cc([C@@H](C)Nc2ccc(Cl)nc2C(=O)NS(C)(=O)=O)c2nc(N3Cc4cnn(CC(F)(F)F)c4C3)n(C3CC3)c(=O)c2c1` [Compound 736, (R)-6-chloro-3-((1-(3-cyclopropyl-6-methyl-4-oxo-2-(1-(2,2,2-trifluoroethyl)-4,6-dihydropyrrolo[3,4-c]pyrazol-5(1H)-yl)-3,4-dihydroquinazolin-8-yl)ethyl)amino)-N-(methylsulfonyl) picolinamide], the IC50 was 0.5 to 1 µM in test [1] and at least 5 µM in test [2].

As to `Cc1cc([C@@H](C)Nc2ccc(Cl)nc2C(=O)NS(C)(=O)=O)c2nc(N3CC[C@H](Nc4ncc(F)cn4)C3)n(C)c(=O)c2c1` [Compound 737, 6-chloro-3-(((R)-1-(2-((S)-3-((5-fluoropyrimidin-2-yl)amino)pyrrolidin-1-yl)-3,6-dimethyl-4-oxo-3,4-dihydroquinazolin-8-yl)ethyl)amino)-N-(methylsulfonyl) picolinamide], the IC50 in test [1] was 0.25 to 0.5 µM; in test [2], at least 5 µM.

Take `Cc1cc([C@@H](C)Nc2ccc(Cl)nc2C(=O)NS(C)(=O)=O)c2nc(N3CC[C@H](Nc4ncc(Cl)cn4)C3)n(C)c(=O)c2c1` [Compound 738, 6-chloro-3-(((R)-1-(2-((S)-3-((5-chloropyrimidin-2-yl)amino)pyrrolidin-1-yl)-3,6-dimethyl-4-oxo-3,4-dihydroquinazolin-8-yl)ethyl)amino)-N-(methylsulfonyl) picolinamide]: the IC50 was 0.25 to 0.5 µM in test [1] and at least 5 µM in test [2].
